Data reported in the NIST ThermoML archive (doi:10.1016/j.jct.2006.09.016).
± gives the expanded uncertainty stated by the source.

Columns and labels:
[1] = Crystal; DTA
[2] = Molar enthalpy of transition or fusion; details: Crystal; DSC
[3] = molar heat capacity at constant pressure; details: 101.33 kPa, Crystal

ON=Cc1ccccn1 [2-pyridinealdoxime]
Details | Molar enthalpy of transition or fusion [kcal/mol] | Normal melting temperature [°C]
[1] | – | 113.08 ± 0.5
[2] | 4.78 ± 0.143 | –

[3]
Details | molar heat capacity at constant pressure [J/K/mol]
80.46 K | 51.68 ± 0.57
84.39 K | 53.78 ± 0.59
87.27 K | 55.38 ± 0.6
90.22 K | 57.07 ± 1
93.26 K | 58.78 ± 1
96.22 K | 60.42 ± 1
99.1 K | 61.8 ± 1
102.07 K | 63.16 ± 1.1
105.13 K | 64.65 ± 1.1
108.12 K | 65.95 ± 1.1
111.05 K | 67.4 ± 1.1
113.93 K | 68.69 ± 1.1
116.9 K | 69.94 ± 1.1
119.96 K | 71.33 ± 1.1
122.97 K | 72.93 ± 1.1
125.94 K | 74.14 ± 1.1
128.85 K | 75.41 ± 1.1
131.74 K | 76.56 ± 1.1
134.71 K | 77.89 ± 1.1
137.77 K | 79.05 ± 1.1
140.8 K | 80.49 ± 1.1
143.79 K | 81.65 ± 1.1
146.74 K | 82.72 ± 1.1
149.66 K | 83.99 ± 1.1
152.56 K | 85.27 ± 1.1
155.54 K | 86.71 ± 1.1
158.61 K | 87.83 ± 1.2
161.66 K | 88.91 ± 1.2
164.67 K | 90.3 ± 1.2
167.66 K | 91.7 ± 1.2
170.63 K | 92.91 ± 1.2
173.58 K | 93.88 ± 1.2
176.5 K | 95.23 ± 1.2
179.4 K | 96.67 ± 1.2
182.38 K | 97.92 ± 1.2
185.45 K | 99.23 ± 1.2
188.5 K | 100.67 ± 1.2
191.52 K | 101.97 ± 1.2
194.53 K | 103.16 ± 1.2
197.5 K | 104.64 ± 1.2
200.47 K | 106.06 ± 1.2
203.41 K | 107 ± 1.2
206.33 K | 108.59 ± 1.2
209.23 K | 109.82 ± 1.2
212.22 K | 111.35 ± 1.2
215.29 K | 112.9 ± 1.3
218.35 K | 113.97 ± 1.3
221.38 K | 115.37 ± 1.3
224.38 K | 117.31 ± 1.3
227.37 K | 118.7 ± 1.3
230.3 K | 120 ± 1.3
233.32 K | 121.77 ± 1.3
236.35 K | 123.52 ± 1.3
239.26 K | 124.25 ± 1.3
242.25 K | 125.83 ± 1.3
245.32 K | 127.09 ± 1.3
248.39 K | 128.4 ± 1.3
251.44 K | 129.85 ± 1.3
254.47 K | 130.36 ± 1.3
257.5 K | 131.52 ± 1.3
260.5 K | 132.74 ± 1.3
263.49 K | 134.49 ± 1.3
266.46 K | 136.14 ± 1.3
269.41 K | 137.72 ± 1.4
272.35 K | 139.5 ± 1.4
275.26 K | 140.58 ± 1.4
278.17 K | 142.55 ± 1.4
281.06 K | 143.7 ± 1.4
284.01 K | 145.45 ± 1.4
287.04 K | 147.06 ± 1.4
290.04 K | 148.68 ± 1.4
293.01 K | 149.59 ± 1.4
295.98 K | 150.99 ± 1.4
298.93 K | 152.1 ± 1.4
301.87 K | 153.86 ± 1.4
304.78 K | 154.72 ± 1.4
307.69 K | 155.91 ± 1.4
310.57 K | 157.91 ± 1.4
313.44 K | 159.33 ± 1.4
316.29 K | 160.28 ± 1.4
319.11 K | 161.83 ± 1.4
321.92 K | 163.28 ± 1.5
324.8 K | 164.64 ± 1.5
327.74 K | 165.88 ± 1.5
330.66 K | 167.18 ± 1.5
333.57 K | 168.11 ± 1.5
336.45 K | 169.62 ± 1.5
339.31 K | 171.01 ± 1.5
342.16 K | 172.57 ± 1.5
344.98 K | 173.51 ± 1.5
347.78 K | 174.14 ± 1.5
350.55 K | 175.82 ± 1.5
353.29 K | 176.47 ± 1.5
355.96 K | 177.08 ± 1.5
358.4 K | 178.59 ± 1.5
360.61 K | 179.15 ± 1.5
363.31 K | 180.38 ± 1.5
365.84 K | 181.56 ± 1.5
367.88 K | 182.97 ± 1.5
370.49 K | 183.67 ± 1.5
372.97 K | 184.42 ± 1.5
